This is an account of results in US20210386792A1, “A METHOD FOR INCREASING POPULATION OF SPERMATOGONIAL STEM CELLS” (priority 2018, published 2021).

In one test the test system is NFATc1 and EGR-1. Kind of test: Nuclear translocation of NFATc1 and EGR-1 in TECs. The test is classed as cell-based, mouse. The conditions noted are these: TEC, 2 ng/ml FGF-2.
For another test, the system named is C-iPS EC. The experiment in a line: GDNF ELISA in conditioned media from control iPS-derived ECs. The format is cell-based, human. The following applies: 2 ng/ml FGF-2. As to the method: Testis, lung, or liver ECs were plated (10,000 cells ml^−1) on 12 well dishes coated with 0.1% gelatin and cultured for 24 hours. Conditioned media was harvested at 24 and 48 hours after FGF-2 (2 ng ml^−1, 20 ng ml^−1 and 50 ng ml^−1) treatment and analyzed by ELISA for GDNF (Promega GDNF Emax immunoassay system, #G7621) following the manufacturer's instruction. Statistics was analyzed using Graph Pad Prism. For quantification of Gdnf mRNA, total RNA was isolated from the cells using Direct-zol RNA MiniPrep (Zymo Research) and reverse transcribed using High Capacity cDNA Reverse Transcription Kit (Appliedbiosystems), according to the manufacturer's instructions. All gene expression levels were normalized to GAPDH mRNA levels.
To generate iPSC lines, either human fibroblasts/stromal cells were transduced with pMXs-based retroviral supernatant with human OCT4, SOX2, KLF4, or MYC as described^30, or mononuclear cells were infected with pHage2-CMV-RTTA-W and pHage-Tet-hSTEMMCA-loxP virus as described^31. All cells were culture on 0.1% gelatin-coated dishes in human endothelial cell medium (Lonza; EGM®-MV Bulletkit) with 50 ng ml^−1 additional VEGF. 500,000 disaggregated single embryonic bodies from human iPSCs were cultured for 48 hours. Non-adherent cells were gently removed and adherent cells were cultured for 1-2 passages. […]

Method for NFATc1 and EGR-1: Quantication of nuclear translocation of EGR1 and NFATc1 in TECs after treatment with conditioned media (CM), 2 ng ml-1 FGF-2±CsA. Values are mean±s.e.m. g.

Consider fibroblast growth factor-2 [FGF-2], for which, in the test on NFATc1 and EGR-1, the “nuclear localization of EGR1” value is listed as “increased” and the “nuclear localization of NFATc1” value is recorded as “increased”. In the test with C-iPS EC, the “GDNF production after FGF2 treatment” value is “stimulated robust GDNF production”.
